Where two headings read alike, the source gives them in different places.

In one assay the target is DprE1 (Mycobacterium tuberculosis, UniProt P9WJF1, Y314H). Also on record: species or system M. tuberculosis H37Ra.
In the next assay the test system is Y198. Type of assay: cell-based, M. tuberculosis.
The next assay has as its system Y48. Type of assay: cell-based, M. tuberculosis.
The subject of a further assay is Y17. Type of assay: cell-based, M. tuberculosis.

In the case of `Cc1nc(C)c(CN2CCOc3c(C(=O)NCC(F)(F)F)cc(C4CC4)cc32)nc1C` [B18, 6-cyclopropyl-N-(2,2,2-trifluoroethyl)-4-((3,5,6-trimethylpyrazin-2-yl)methyl)-3,4-dihydro-2H-benzo[b][1,4]oxazine-8-carboxamide], the Amino-acid substitution result at DprE1 is “Tyr→His”.

On to `CC[C@@H](CO)NCCN[C@@H](CC)CO` [EMB, ethambutol], for which the “Drug resistance of clinical isolate” value in the assay with Y198 (strain Y198) and in the assay with Y48 (strain Y48) was “R” in each case.

Turning to `NNC(=O)c1ccncc1` [INH, isoniazid], the “Drug resistance of clinical isolate” value with Y198 (strain Y198), with Y17 (strain Y17) and in the assay with Y48 (strain Y48) was “R” each time.

As to `Nc1ccc(C(=O)O)c(O)c1` [PA, p-aminosalicylic acid], the “Drug resistance of clinical isolate” value in the assay on Y198 (strain Y198) is reported as “R”; in the assay with Y48 (strain Y48), “S”.

On to `NC(=O)c1cnccn1` [PZA, pyrazinamide], for which the “Drug resistance of clinical isolate” value with Y198 (strain Y198) is on record as “R”.

In the case of `CO[C@H]1/C=C/O[C@@]2(C)Oc3c(C)c(O)c4c(c3C2=O)C2=NC3(CCN(CC(C)C)CC3)NC2=C(NC(=O)/C(C)=C\C=C\[C@H](C)[C@H](O)[C@@H](C)[C@@H](O)[C@@H](C)[C@H](OC(C)=O)[C@@H]1C)C4=O` [RFB, rifabutin], the “Drug resistance of clinical isolate” value with Y198 (strain Y198) is “R”.

For the compound `CO[C@H]1/C=C/O[C@@]2(C)Oc3c(C)c(O)c4c(O)c(c(/C=N/N5CCN(C6CCCC6)CC5)c(O)c4c3C2=O)NC(=O)/C(C)=C\C=C\[C@H](C)[C@H](O)[C@@H](C)[C@@H](O)[C@@H](C)[C@H](OC(C)=O)[C@@H]1C` [RFT, rifapentine], in the assay on Y198 (strain Y198), the “Drug resistance of clinical isolate” value is listed as “R”.

Take `CO[C@H]1/C=C/O[C@@]2(C)Oc3c(C)c(O)c4c(O)c(c(/C=N/N5CCN(C)CC5)c(O)c4c3C2=O)NC(=O)/C(C)=C\C=C\[C@H](C)[C@H](O)[C@@H](C)[C@@H](O)[C@@H](C)[C@H](OC(C)=O)[C@@H]1C` [RMP, rifampicin]: the “Drug resistance of clinical isolate” value in the assay on Y198, in the assay on Y17 and in the assay with Y48 was “R” throughout.

With `[H]/N=C(/N)N[C@H]1[C@H](O)[C@@H](O)[C@H](O[C@@H]2O[C@@H](C)[C@](O)(C=O)[C@H]2O[C@@H]2O[C@@H](CO)[C@H](O)[C@@H](O)[C@@H]2NC)[C@@H](N/C(N)=N\[H])[C@@H]1O` [SM, streptomycin], in the assay with Y198 (strain Y198), the “Drug resistance of clinical isolate” value is listed as “R”.

With `COc1ncnc(Cn2cc(C(=O)NCCO)c3ncc(C)cc32)c1C` [TBA-7371, reference compound], the Amino-acid substitution result at DprE1 was “Tyr→His”.
